Data on one molecule can be found in US11633392B2 (priority 2016, dated 2023).

Bounds are passed on as bounds.

The target in one assay is T1, human opioid δ receptor (Homo sapiens, UniProt P41143).
T1 construct: host or cells: CHO cells
Put plainly: Opioid receptor function test (Lance Ultra cAMP Kit), δ receptor. The assay is classed as cell-based. The procedure:
Opioid Receptor Function Test
The functional activities of the compounds provided by the present invention on the μ, δ, and κ opioid receptors were investigated.
The test was performed by using Lance Ultra cAMP Kit (PerkinElmer) according to a method predetermined for the kit. In the evaluation of the agonistic activity, CHO cells expressing each of the human opioid receptors (δ, μ, and κ, accession numbers and catalog numbers are mentioned below) and 10 μM of each test compound were reacted for 30 minutes in an assay buffer (1× HBSS, […], pH 7.4, […] (isobutylmethylxanthine), 7.5% BSA) in the presence of forskolin. Subsequently, the cAMP detection reagent included in the kit was added, and 1 hour afterward, time-resolved fluorescence measurement was performed by using the EnVision plate reader (PerkinElmer). The test compounds and the control drugs (δ: SNC80, μ: DAMGO, κ: U-69593) were evaluated in a concentration range of 10^−12 to 10^−5 M, a dose-response curve of each test compound was obtained from the fluorescence values at 665 nm, and EC50 value and the Emax value were calculated. The Emax value was calculated as a ratio of the maximum reaction of the test compound to the maximum reaction of each control drug, which is taken as 100%.
• δ: Catalog No. CT4607, Accession No. NM_000911.2 • μ: Catalog No. CT4605, Accession No. NM_000914 • κ: Catalog No. CT4606, Accession No. NM_000912 (ChanTest Corporation)

The next assay deals with C57BL/6N male mice. Put plainly: Mouse elevated plus maze test. The assay is classed as in vivo. Particulars: subcutaneous, 1 mg/kg, 30 minutes before test (FIG. 2). As to the method:
Mouse Elevated Plus Maze Test
For the test, 5 to 6 weeks old C57BL/6N male mice were used. On a plus maze apparatus consisting of a wall-less running route (open arm, width 6 cm, length 30 cm) and a running route with a wall (closed arm, width 6 cm, length 30 cm, height of wall 15 cm), and having a height of 40 cm, a mouse was put so as to be directed to the running route with a wall, and allowed to spontaneously enter into the plus maze. Each test substance was dissolved in saline or 0.005 N HCl in saline, and subcutaneously administered on the back 30 minutes before the start of the test. At the time of the start of the test, video recording with a video camera was started, the time at which the mouse entered into the plus maze is considered to be the start of the test, and exploratory behavior was recorded for 5 minutes. On the basis of the video image, staying times in the running routes were determined, and wall-less running route staying time ratio (%) was calculated.

In the next assay the test system is SD male rats. Put plainly: Rat cerebral infarction-induced overactive bladder model (cystometry). The assay is classed as in vivo. The settings on record: for Pressure at the time of urination / Single urination amount / Static pressure / Urination interval: cumulative, Mean ± S.E. (n = 5). The procedure:
Evaluation Using Rat Cerebral Infarction-Induced Overactive Bladder Model
A transient middle cerebral artery occlusion model was prepared by using 8 weeks old SD male rats under isoflurane inhalation anesthesia. On the next day, the cervix was slightly cut open again under the isoflurane inhalation anesthesia, and a catheter for administration was fixed in the jugular vein, and led to the back. A cystometry operation was also performed, and the other end of a cannula inserted into the bladder was led to the back, and connected to a cannula swivel.
On the day 4 after the cerebral ischemia operation, cystometry was performed under no anesthesia and with no restraint. Intravesical pressure was measured for the stable period, then a medium was intravenously administered, and the value of the pressure was measured over about 30 minutes as a value before test substance administration. Then, the test substance was cumulatively and intravenously administered from the lowest dose at intervals of about 30 minutes, and the value was measured for about 30 minutes after each administration. For the rats determined to show pollakiuria (urination interval was 10 minutes or shorter) in the measurement before the administration, static intravesical pressure, pressure at the time of urination, urination interval, and single urination amount were measured at each time point.

A word on the EC50: it is the concentration at which the effect is half-maximal. One may read the Emax as the greatest response seen or fitted, relative to the assay's reference.

T1 sequence (P41143 whole entry): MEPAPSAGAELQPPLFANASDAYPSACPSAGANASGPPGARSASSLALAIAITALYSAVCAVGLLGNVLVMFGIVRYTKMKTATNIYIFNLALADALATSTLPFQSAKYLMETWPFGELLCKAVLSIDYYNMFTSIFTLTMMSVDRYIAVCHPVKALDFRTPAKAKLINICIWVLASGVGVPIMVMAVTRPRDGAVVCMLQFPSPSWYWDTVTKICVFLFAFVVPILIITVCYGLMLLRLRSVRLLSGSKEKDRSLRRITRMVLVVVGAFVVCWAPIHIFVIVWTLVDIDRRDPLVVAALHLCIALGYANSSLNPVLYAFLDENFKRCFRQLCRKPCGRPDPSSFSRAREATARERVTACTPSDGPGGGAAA

In the case of `O=C(c1cccc(=O)[nH]1)N1C[C@H]2C[C@@]34CC[C@@H]1[C@@H]2[C@@]31CCN(CC2CC2)[C@@H]4Cc2ccc(O)cc21` [Example 7, 6-((1S,3aR,5aS,6R,11bR,11cS)-14-(cyclopropylmethyl)-10-hydroxy-2,3,3a,4,5,6,7,11c-octahydro-1H-6,11b-(epiminoethano)-1,5a-methanonaphtho[1,2-e]indole-3-carbonyl)pyridin-2(1H)-one], the EC50 at human opioid δ receptor (CHO cells expressing human δ receptor, cAMP, in the presence of forskolin) is less than 3 nM. Moreover, the Emax at human opioid δ receptor (ratio to maximum reaction of control drug SNC80 taken as 100%) came to 99%. Further, the “wall-less running route staying time ratio” value with C57BL/6N male mice was “significantly increased”. In the assay on SD male rats (0.01 mg/kg intravenous), the “Pressure at the time of urination” value is 42.9 ± 10.7 mmHg, the Single urination amount turned out to be 0.310 ± 0.068 g, the Static pressure is recorded as 9.5 ± 1.3 mmHg and the Urination interval was determined as 450.7 ± 76.9 s. Besides, in the assay on SD male rats (0.1 mg/kg intravenous), the “Pressure at the time of urination” value amounted to 42.8 ± 9.7 mmHg, the Single urination amount was found to be 0.403 ± 0.129 g, the Static pressure was found to be 9.6 ± 1.1 mmHg and the Urination interval was found to be 547.4 ± 122.5 s. Besides, in the assay with SD male rats (0.01 and 0.1 mg/kg intravenous), the “effect on single urination amount (in words)” value is listed as “dose-dependently increasing tendency” and the “effect on urination interval (in words)” value is on record as “dose-dependently increasing tendency”. Besides, in the assay on SD male rats (all the doses), the “effect on pressure at the time of urination (in words)” value is recorded as “did not affect” and the “effect on static intravesical pressure (in words)” value was “did not affect”.
